What was measured:
Format in all cases: functional
Mus musculus [1] = experiment: Number of mice surviving at 60 days postinfection when administered as a single dose of 80 mg/kg (sc) 72-h post infection (delta MST)
Mus musculus [2] = experiment: Number of mice surviving at 60 days postinfection when administered as a single dose of 320 mg/kg (sc) 72-h post infection (delta MST)
Plasmodium berghei [3] = experiment: Change in mean survival time of trophozoite-induced Plasmodium berghei infection after 160 mg/kg subcutaneous dose
Mus musculus [4] = experiment: Antimalarial activity tested against trophozoite induced Plasmodium berghei in mice (Mus musculus) expressed as change in mean survival time after a single dose of 320 mg/kg (subcutaneously); conditions: route subcutaneous
Plasmodium berghei [5] = experiment: Change in mean survival time of trophozoite-induced Plasmodium berghei infection after 80 mg/kg subcutaneous dose
Plasmodium berghei [6] = experiment: Change in mean survival time of trophozoite-induced Plasmodium berghei infection after 20 mg/kg subcutaneous dose
Mus musculus [7] = experiment: Number of mice surviving at 60 days postinfection when administered as a single dose of 40 mg/kg (sc) 72-h post infection (delta MST)
Mus musculus [8] = experiment: Number of mice surviving at 60 days postinfection when administered as a single dose of 160 mg/kg (sc) 72-h post infection (delta MST)
Plasmodium berghei [9] = experiment: Change in mean survival time of trophozoite-induced Plasmodium berghei infection after 40 mg/kg subcutaneous dose
Mus musculus [10] = experiment: Antimalarial activity tested against trophozoite induced Plasmodium berghei in mice (Mus musculus) expressed as change in mean survival time after a single dose of 10 mg/kg (subcutaneously); conditions: route subcutaneous
Mus musculus [11] = experiment: Number of mice surviving at 60 days postinfection when administered as a single dose of 640 mg/kg (sc) 72-h post infection
Mus musculus [12] = experiment: Antimalarial activity tested against trophozoite induced Plasmodium berghei in mice (Mus musculus) expressed as change in mean survival time after a single dose of 640 mg/kg (subcutaneously); conditions: route subcutaneous
Mus musculus [13] = experiment: Number of mice surviving at 60 days postinfection when administered as a single dose of 320 mg/kg (sc) 72-h post infection
Mus musculus [14] = experiment: Number of deaths when administered as a single dose of 640 mg/kg (sc) 72-h postinfection in mice
Mus musculus [15] = experiment: Number of deaths when administered as a single dose of 320 mg/kg (sc) 72-h postinfection in mice
Mus musculus [16] = experiment: Number of mice surviving at 60 days postinfection when administered as a single dose of 20 mg/kg (sc) 72-h post infection (delta MST)
Mus musculus [17] = experiment: Number of mice surviving at 60 days postinfection when administered as a single dose of 160 mg/kg (sc) 72-h post infection
[18] = Antimalarial activity tested against trophozoite induced Plasmodium berghei in mice (Mus musculus) expressed as change in mean survival time after a single dose of 40 mg/kg (subcutaneously); conditions: route subcutaneous
Mus musculus [19] = experiment: Number of mice surviving at 60 days postinfection when administered as a single dose of 640 mg/kg (sc) 72-h post infection (delta MST)
Mus musculus [20] = experiment: Number of mice surviving at 60 days postinfection when administered as a single dose of 80 mg/kg (sc) 72-h post infection

Row | SMILES | Cures (Mus musculus [1]) | Cures (Mus musculus [2]) | Delta MST (Plasmodium berghei [3]) [days] | Delta MST (Mus musculus [4]) [days] | Delta MST (Plasmodium berghei [5]) [days] | Delta MST (Plasmodium berghei [6]) [days] | Cures (Mus musculus [7]) | Cures (Mus musculus [8]) | Delta MST (Plasmodium berghei [9]) [days] | Delta MST (Mus musculus [10]) [days] | Cures (Mus musculus [11]) | Delta MST (Mus musculus [12]) [days] | Cures (Mus musculus [13]) | Deaths (Mus musculus [14]) | Deaths (Mus musculus [15]) | Cures (Mus musculus [16]) | Cures (Mus musculus [17]) | Delta MST [18] [days] | Cures (Mus musculus [19]) | Cures (Mus musculus [20])
1 | CCN(CC)Cc1cc(Nc2cc[n+]([O-])c3cc(Cl)ccc23)cc(C)c1O | 1 | 3 | 13 | 19 | 11.5 | 7.6 | 2 | 3 | 14.3 | 1.4 | 5 |  |  |  |  |  |  |  |  | 
2 | CCc1cc(Nc2cc[n+]([O-])c3cc(Cl)ccc23)cc(CN(CC)CC)c1O | 3 | 3 | 13.4 | 13.4 | 10.9 | 5.5 | 1 | 2 | 13.2 | 3.7 | 4 | 1.4 |  |  |  |  |  |  |  | 
3 | CCC(C)c1cc(Nc2cc[n+]([O-])c3cc(Cl)ccc23)cc(CN(CC)CC)c1O (stereo not given) |  | 3 | 30 | 39.7 | 21.9 | 12.6 |  | 2 | 20.9 | 4.6 | 5 |  |  |  |  |  |  |  |  | 
4 | CCN(CC)Cc1cc(Nc2ccnc3cc(Cl)ccc23)c2c(c1O)CCCC2 | 2 | 3 | 15.1 | 28.3 | 14.8 | 12.6 | 2 | 2 | 12.8 | 6.8 | 3 |  |  |  |  |  |  |  |  | 
5 | CCN(CC)Cc1cc(Nc2ccnc3cc(Cl)ccc23)cc(Sc2ccc(Cl)cc2)c1O |  |  | 10.1 |  | 8.8 | 3 |  |  | 7.3 |  |  | 13.1 |  |  |  |  |  |  |  | 
6 | CCN(CC)Cc1cc(Nc2cc[n+]([O-])c3cc(Cl)ccc23)cc(C2CCCCC2)c1O |  | 4 | 22.4 | 24.9 | 8.5 | 0.5 |  | 3 | 3.9 |  | 5 |  |  |  |  |  |  |  |  | 
7 | CCN(CC)Cc1cc(Nc2ccnc3cc(Cl)ccc23)cc(C)c1O | 4 | 3 | 20.7 | 17.2 | 13.7 | 10.4 | 1 | 4 | 13 | 7 | 5 |  |  |  |  |  |  |  |  | 
8 | CCC(C)c1cc(Nc2ccnc3cc(Cl)ccc23)cc(CN(CC)CC)c1O (stereo not given) | 2 |  | 40.2 |  | 29.4 | 18 | 2 | 1 | 27.7 | 9.8 | 5 |  | 5 |  |  |  |  |  |  | 
9 | CCN(CC)Cc1cc(Nc2cc[n+]([O-])c3cc(Cl)ccc23)cc(C(C)(C)C)c1O |  |  | 4.1 | 6.7 | 2.9 | 0.1 |  |  | 1.7 | 3.7 |  | 6.1 |  |  |  |  |  |  |  | 
10 | CCN(CC)Cc1cc(Nc2cc[n+]([O-])c3cc(Cl)ccc23)cc(Cc2ccccc2)c1O |  |  | 5.4 |  | 4.2 | 0.4 |  |  | 2 |  |  |  |  | 14 | 14 |  |  |  |  | 
11 | CCN(CC)Cc1cc(Nc2cc[n+]([O-])c3cc(Cl)ccc23)cc(Sc2ccc(Cl)cc2)c1O |  |  | 7.6 | 9 | 3.4 | 0.5 |  |  | 4.1 |  |  | 14.4 |  |  |  |  |  |  |  | 
12 | CCN(CC)Cc1cc(Nc2ccnc3cc(Cl)ccc23)cc(Cc2ccccc2)c1O |  |  | 3.7 | 7.8 | 3.4 | 0.2 |  |  | 1.7 |  |  | 7.9 |  |  |  |  |  |  |  | 
13 | CC(C)(C)NCc1cc(Nc2ccnc3cc(Cl)ccc23)cc(-c2ccc(Cl)cc2)c1O [TEBUQUINE] | 3 | 1 | 14.9 | 16.4 | 14.9 | 14.9 | 4 | 2 | 19.9 |  |  | 17.1 |  |  |  | 3 |  |  |  | 
14 | CCN(CC)Cc1cc(Nc2ccnc3cc(Cl)ccc23)cc(C(C)C)c1O | 4 |  |  |  | 25.4 | 18.1 | 3 |  | 27.9 | 11.1 | 5 |  | 5 |  |  |  | 5 |  |  | 
15 | CCc1cc(Nc2ccnc3cc(Cl)ccc23)cc(CN(CC)CC)c1O | 2 | 4 | 14.4 | 34.4 | 20.7 | 12.1 | 1 | 4 |  | 6.1 |  | 27.4 |  |  |  |  |  | 12.4 | 4 | 
16 | CCN(CC)Cc1cc(Nc2ccnc3cc(Cl)ccc23)cc(C2CCCCC2)c1O | 2 |  |  |  | 10.6 | 0.5 |  |  | 5.7 |  | 5 |  | 5 |  |  |  | 5 |  |  | 
17 | CCN(CC)Cc1cc(Nc2ccnc3cc(Cl)ccc23)ccc1O.Cl |  |  |  |  |  | 8.3 |  |  | 11.9 |  | 5 |  | 5 |  |  |  | 5 |  |  | 2
18 | CCN(CC)Cc1cc(Nc2ccnc3cc(Cl)ccc23)cc(C(C)(C)C)c1O |  |  | 1.9 | 5.9 | 1.7 | 0.1 |  |  | 0.5 |  |  | 6.3 |  |  |  |  |  |  |  | 
19 | CCN(CC)Cc1cc(Nc2cc[n+]([O-])c3cc(Cl)ccc23)cc(C(C)C)c1O | 1 | 1 | 21.7 | 29.7 | 15.5 | 11.8 | 1 | 1 | 15.5 | 3 |  | 23.7 |  |  |  |  |  |  | 4 | 

Reference: ChEMBL document CHEMBL1123903, “Synthesis and antimalarial effects of 4-[(7-chloro-4-quinolinyl)amino]-2-[(diethylamino)methyl] -6-alkylphenols and their N omega-oxides” (1987)
